Reference: ChEMBL document CHEMBL3046883, “Evaluation of insecticidal activity of diterpenes and lignans from Aristolochia malmeana against Anticarsia gemmatalis” (2008)
The source made the active and inactive calls. No cut-off for these calls is given here.

Tested on: Anticarsia gemmatalis
Assay: Insecticidal activity against Anticarsia gemmatalis (velvetbean caterpillar) third-instar larvae exposed to compound through topical dosing at mesothorax region assessed as induction of larval mortality
Assay type: functional

| Structure (SMILES) | LD50 | LD10 | inhibition |
| --- | --- | --- | --- |
| C=C1C=C(C)[C@]2(C)CC[C@@H](C)[C@](C)(CC/C(C)=C/C(=O)O)[C@H]2C1 | inactive | – | – |
| O=C1OC[C@H](Cc2ccc3c(c2)OCO3)[C@H]1Cc1ccc2c(c1)OCO2 | inactive | – | – |
| COc1ccc(C[C@H]2COC(=O)[C@@H]2Cc2ccc3c(c2)OCO3)cc1OC [(-)-KUSUNOKININ] | 230.1 µg/µL | 9.3 µg/µL | Dose-dependent effect |
